Data set [1] in a line: Uterine weight in ovariectomized rats. The data set is classed as in vivo, rat. As to conditions: OVX rats; for uterine weight compared with control group: 200 μg/kg sc; for Uterine Weight (g, ± SEM): 200 μg/kg sc in corn oil, 2 hours prior to MCAO, harvested 24 hours after reperfusion. Here is the method:
Female, Sprague rats (200-250 g, Charles River, Wilmington, Mass.) were acclimatized for three days prior to surgery. Bilateral ovariectomy (OVX) was performed two weeks prior to middle cerebral artery occlusion (MCAO). Animals were anesthetized by intraperitoneal injection of ketamine (60 mg/kg) and xylazine (10 mg/kg). Rectal temperature was maintained at 37.5±0.5° C. during procedure. The middle cerebral artery was occluded for one hour then suture was withdrawn for reperfusion. […] Animals were decapitated 24 hours after reperfusion. Uteruses were harvested, blotted, and weighed for comparison among treatment groups.

Data set [2] can be described thus: In vitro reduction of estrone-quinol to estrone by reducing agents in phosphate buffer (LC/MS). As to conditions: for extent of reductive conversion: pH 7.5, 37° C. The data set is classed as in vitro ADME. As for the experimental part:
Estrone-quinol (0.1 mM) was incubated at 37° C. in 0.1 M phosphate buffer pH 7.5 in the presence of 1 mM of NADH, NADPH, sodium ascorbate, and glutathione (GSH). Aliquots (500 μl) were taken after 60 minutes of incubation, and extracted with ethyl acetate (3×0.5 mL) and the mixture vortexed for 1 minute and centrifuged at […] for 5 minutes. After removing the solvent, the residue of the combined organic extracts was analyzed for their estrone content by LC/MS/MS.
Mass spectra were recorded on a quadrupole ion-trap instrument (LCQ, ThermoFinnigan) using positive-ion APCI as the method of ionization. […] Compound identification was based on retention time (tR), APCI mass spectra, MS/MS and MS^3 with authentic compounds as references. […].
At incremental time points, […] aliquots were removed into ice-cooled centrifuge tubes, and 50 μl of glacial acetic acid was added. After immediate extraction with ethyl acetate (2×500 μl), the organic layer was evaporated under nitrogen stream at room temperature. Reconstitution of the samples with the LC mobile phase was followed by LC/MS analyses. For control, no reducing agents were used.
[…]. […] Kinetic analysis of the microsomal metabolism was done by nonlinear curve-fitting (Scientist for Windows; MicroMath, Inc., Salt Lake City, Utah) presuming consecutive first-order processes in the cascade of estrone-quinol→estrone→estrone-metabolites.

Data set [3] concerns the target T1, recombinant estrogen receptor α (ERα) (Homo sapiens, UniProt P03372).
T1 construct: purchased Panvera, Madison, Wis
T1 sequence (P03372 1-595): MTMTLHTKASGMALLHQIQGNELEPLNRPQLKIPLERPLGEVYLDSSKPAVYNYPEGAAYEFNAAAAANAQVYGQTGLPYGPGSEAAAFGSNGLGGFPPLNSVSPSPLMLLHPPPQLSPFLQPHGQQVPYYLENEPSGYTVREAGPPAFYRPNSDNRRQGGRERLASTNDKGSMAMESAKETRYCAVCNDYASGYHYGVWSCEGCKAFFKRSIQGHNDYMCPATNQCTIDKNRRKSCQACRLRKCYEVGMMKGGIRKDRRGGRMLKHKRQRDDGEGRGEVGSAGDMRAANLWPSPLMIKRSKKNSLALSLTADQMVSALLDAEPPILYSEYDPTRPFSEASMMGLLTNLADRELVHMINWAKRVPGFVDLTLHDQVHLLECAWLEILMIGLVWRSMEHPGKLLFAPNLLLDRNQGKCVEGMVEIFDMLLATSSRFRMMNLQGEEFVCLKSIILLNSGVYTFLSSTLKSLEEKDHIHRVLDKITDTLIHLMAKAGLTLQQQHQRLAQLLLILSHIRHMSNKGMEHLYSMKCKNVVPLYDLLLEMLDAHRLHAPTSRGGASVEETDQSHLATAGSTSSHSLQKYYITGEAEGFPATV
The data set can be described thus: Competition binding assay, […] EFC Estrogen Chemiluminescence Assay. As for the experimental part:
(§1) Competition binding assays were performed using an enzyme fragment complementation (EFC) method described in the […] EFC Estrogen Chemiluminescence Assay kit (Fremont, Calif.). […] The enzyme acceptor was then added for another 1.5 hours after which chemiluminescence substrate was added for another hour. Relative luminescences were determined using a Biotek FL600 plate reader (Biotek Instruments, Winooski, Vt.).

Data set [4] has as its target T2, recombinant estrogen receptor β (ERβ) (Homo sapiens, UniProt Q92731).
T2 construct: purchased Panvera, Madison, Wis
Described as above. As for the experimental part: as §1

Data set [5] is described as follows: Cerebral microdialysis, reduction of estrone-quinol to estrone in vivo. More on the design: species or system rat. As to conditions: probe perfused at 1 μl/min with 10 picomole/μL in aCSF, ventral hippocampus. The source says:
Male, Sprague rats (300-400 g) were anesthetized, placed in a stereotaxic instrument, and a guide cannula (CMA/12 guide cannula) was implanted into the ventral hippocampus under aseptic conditions. The guide cannula was fixed to the skull, together with stainless steel screws attached into additional two holes, with dental acrylics. Before starting the experiment (usually 5-7 days after the implantation of the guide cannula implantation) the rats were placed in a containment unit (BAS, Inc.) for at least 30 minutes. Then a microdialysis probe (CMA/12 polycarbonate membrane diameter 0.5 mm; membrane length 4 mm; molecular cut off: 5,000 Da) was inserted into the ventral hippocampus through the guide cannula. After insertion, the microdialysis probe was perfused with an artificial cerebrospinal fluid (aCSF) at a flow rate of 1 μl/min. maintained by a microperfusion pump (BAS BeeStinger) attached to the probe via polyethylene tubing and a liquid swivel. After equilibration for 50 minutes, an automatic refrigerated fraction collector (BAS HoneyComb) was used for continuous sampling of the probe efflux for 24 hours in 60 minute fractions collected into 300-μl glass vials (control). […]

SMILES strings stand for the structures. Like-named read-outs stand apart in the source and are kept apart here.

T2 sequence (Q92731 whole entry): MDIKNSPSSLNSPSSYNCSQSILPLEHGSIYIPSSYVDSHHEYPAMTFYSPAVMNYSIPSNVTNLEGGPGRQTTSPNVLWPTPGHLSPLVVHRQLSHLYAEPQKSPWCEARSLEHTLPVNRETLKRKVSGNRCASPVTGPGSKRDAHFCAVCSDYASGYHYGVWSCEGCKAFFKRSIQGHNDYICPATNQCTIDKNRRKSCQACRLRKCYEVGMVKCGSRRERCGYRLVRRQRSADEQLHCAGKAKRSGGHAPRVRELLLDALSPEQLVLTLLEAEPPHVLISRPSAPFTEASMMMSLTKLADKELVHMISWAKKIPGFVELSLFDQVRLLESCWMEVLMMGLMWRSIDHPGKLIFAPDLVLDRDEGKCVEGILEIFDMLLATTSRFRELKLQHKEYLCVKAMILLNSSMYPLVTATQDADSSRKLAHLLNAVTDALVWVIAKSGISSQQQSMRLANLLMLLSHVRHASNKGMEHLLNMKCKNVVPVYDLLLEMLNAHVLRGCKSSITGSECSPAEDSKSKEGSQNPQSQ

In the case of `C[C@]12CC[C@@H]3c4ccc(O)cc4CC[C@H]3[C@@H]1CCC2=O` [E1, estrone, reference compound], in data set [1], the “uterine weight compared with control group” value is given as “doubled” and the “Uterine Weight (g, ± SEM)” value was 0.222 ± 0.022 g.
By IC50 is commonly meant the concentration that inhibits the measured activity by half. As to `C[C@]12CC[C@H]3[C@@H](CCC4=CC(=O)C=C[C@@]43O)[C@@H]1CCC2=O` [E1-quinol, 10β-hydroxyestra-1,4-diene-3,17-dione], the “uterine weight compared with control group” value in data set [1] is on record as “no difference”. Moreover, the “Uterine Weight (g, ± SEM)” value in data set [1] stood at 0.115 ± 0.010 g. Moreover, the “initial rate of second-order reaction for the reduction by NADPH” value in data set [2] (10-fold excess of NADPH, microsome-free buffer solution, identical incubation conditions) is 0.62 ± 0.03 nmol/min. Besides, the “extent of reductive conversion” value was “significant extent of reductive conversion” in data set [2] (Example 4, 1.0 mM NADH) and “significant extent of reductive conversion” in data set [2] (Example 4, 1.0 mM NADPH). Besides, the 50% inhibitory concentration (IC50) in data set [3] and in data set [4] was > 10 µM in each case. In addition, the “flux of entry into the brain” value in data set [5] was “about 2 picomole/minute”.
Turning to `C[C@]12CC[C@H]3[C@@H](CCC4=CC(=O)C=C[C@@]43O)[C@@H]1CC[C@@H]2O` [E2-quinol], the IC50 is > 10 µM in data set [3] (ERα, read-out: IC50) and > 10 µM in data set [4] (ERβ, read-out: IC50).

For the origin of these results see patent US7300926B2, “Steroidal quinols and their use for estrogen replacement therapy” (University of Florida Research Foundation, Inc., priority 2002, dated 2007).
